Data reported in PubChem BioAssay AID248 (DTP/NCI, 2004).
“And” between values parts separate entries of the source, which are not always exact repeats. Equal values may be shown once. Inconclusive results and toxic doses are left out. No stated cut-off is given here; in the data, active means T/C of 150% or more; inactive means T/C below 125%.

System: L1210 leukemia ip in BDF1 mice, survival T/C
Assay: NCI In Vivo Anticancer Drug Screen. Data for tumor model L1210 Leukemia (intraperitoneal) in B6D2F1 (BDF1) mice
Details: endpoint: mean survival time, higher = longer survival
Outline: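 Mice bearing the transplanted tumor received compound or vehicle. Survival of the treated group was divided by that of the vehicle-treated control group to give the ratio.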

[1] = dose: 12.5 mg/kg/injection, schedule: Q04DX003 (ip), vehicle: saline
[2] = dose: 25.0 mg/kg/injection, schedule: Q04DX003 (ip), vehicle: saline
[3] = dose: 50.0 mg/kg/injection, schedule: Q04DX003 (ip), vehicle: saline
[4] = dose: 100.0 mg/kg/injection, schedule: Q01DX009 (ip), vehicle: Klucel (hydroxypropylcellulose) (HPC)
[5] = dose: 100.0 mg/kg/injection, schedule: Q04DX002 (ip), vehicle: saline with Tween-80
[6] = dose: 100.0 mg/kg/injection, schedule: Q04DX003 (ip), vehicle: Klucel (hydroxypropylcellulose) (HPC)
[7] = dose: 200.0 mg/kg/injection, schedule: Q04DX002 (ip), vehicle: saline with Tween-80
[8] = dose: 200.0 mg/kg/injection, schedule: Q04DX003 (ip), vehicle: Klucel (hydroxypropylcellulose) (HPC)
[9] = dose: 400.0 mg/kg/injection, schedule: Q04DX003 (ip), vehicle: Klucel (hydroxypropylcellulose) (HPC)
[10] = dose: 100.0 mg/kg/injection, schedule: Q01DX001 (ip), vehicle: carboxymethylcellulose (CMC)
[11] = dose: 200.0 mg/kg/injection, schedule: Q01DX001 (ip), vehicle: carboxymethylcellulose (CMC)
[12] = dose: 400.0 mg/kg/injection, schedule: Q01DX001 (ip), vehicle: carboxymethylcellulose (CMC)
[13] = dose: 100.0 mg/kg/injection, schedule: Q01DX001 (ip), vehicle: saline
[14] = dose: 200.0 mg/kg/injection, schedule: Q01DX001 (ip), vehicle: saline
[15] = dose: 400.0 mg/kg/injection, schedule: Q01DX001 (ip), vehicle: saline
[16] = dose: 200.0 mg/kg/injection, schedule: Q01DX009 (ip), vehicle: Klucel (hydroxypropylcellulose) (HPC)
[17] = dose: 400.0 mg/kg/injection, schedule: Q01DX009 (ip), vehicle: Klucel (hydroxypropylcellulose) (HPC)

Measured: T/C

CCCCCCCCCCOC(=O)C[n+]1ccc(C(N)=O)cc1
inactive: [1] 98 % of control | [2] 91 % of control | [3] 91 % of control

CCN(CC)c1cccc(OC(=O)NC)c1
inactive: dose: 0.75 mg/kg/injection, schedule: Q01DX009 (ip), vehicle: saline with Tween-80 91 % of control | dose: 1.5 mg/kg/injection, schedule: Q01DX009 (ip), vehicle: saline with Tween-80 94 % of control | dose: 3.0 mg/kg/injection, schedule: Q01DX009 (ip), vehicle: saline with Tween-80 94 % of control

O=C(NC(=S)Nc1cccc(Cl)c1)c1ccccc1F
inactive: dose: 25.0 mg/kg/injection, schedule: Q01DX009 (ip), vehicle: Klucel (hydroxypropylcellulose) (HPC) 87 % of control | dose: 50.0 mg/kg/injection, schedule: Q01DX009 (ip), vehicle: Klucel (hydroxypropylcellulose) (HPC) 86 % of control | [4] 87 % of control

O=C(OC12CCCC1CC2)c1ccc([N+](=O)[O-])cc1 (centres undefined)
inactive: dose: 100.0 mg/kg/injection, schedule: Q04DX003 (ip), vehicle: saline with Tween-80 91 % of control | dose: 200.0 mg/kg/injection, schedule: Q04DX003 (ip), vehicle: saline with Tween-80 103 % of control | dose: 400.0 mg/kg/injection, schedule: Q04DX003 (ip), vehicle: saline with Tween-80 100 % of control

CCCCC(CCCC)(C(=O)OCC)C(=O)OCC
inactive: [5] 94 % of control | [6] 96 % of control | [7] 94 % of control | [8] 105 % of control | dose: 400.0 mg/kg/injection, schedule: Q04DX002 (ip), vehicle: saline with Tween-80 94 % of control | [9] 91 % of control

O=C(O)c1ccc(OCCOc2ccc([N+](=O)[O-])cc2)c(Cl)c1
inactive: [10] 95 % of control and 105 % of control | dose: 100.0 mg/kg/injection, schedule: Q01DX009 (ip), vehicle: carboxymethylcellulose (CMC) 92 % of control and 89 % of control | dose: 100.0 mg/kg/injection, schedule: Q04DX002 (ip), vehicle: gum acacia 101 % of control | dose: 100.0 mg/kg/injection, schedule: Q04DX003 (ip), vehicle: carboxymethylcellulose (CMC) 95 % of control and 86 % of control | [11] 101 % of control and 103 % of control | dose: 200.0 mg/kg/injection, schedule: Q01DX009 (ip), vehicle: carboxymethylcellulose (CMC) 93 % of control and 100 % of control | dose: 200.0 mg/kg/injection, schedule: Q04DX002 (ip), vehicle: gum acacia 98 % of control and 99 % of control | dose: 200.0 mg/kg/injection, schedule: Q04DX003 (ip), vehicle: carboxymethylcellulose (CMC) 95 % of control and 90 % of control | [12] 100 % of control | dose: 400.0 mg/kg/injection, schedule: Q04DX002 (ip), vehicle: gum acacia 94 % of control and 98 % of control | dose: 400.0 mg/kg/injection, schedule: Q04DX003 (ip), vehicle: carboxymethylcellulose (CMC) 90 % of control and 91 % of control

S=c1cc[nH]c(=S)[nH]1
inactive: dose: 50.0 mg/kg/injection, schedule: Q04DX003 (ip), vehicle: Klucel (hydroxypropylcellulose) (HPC) 97 % of control | [6] 97 % of control | [8] 95 % of control

COc1ccc(/C=N/N2CCN(/N=C/c3ccc(OC)c(O)c3)CC2)cc1O
inactive: [13] 93 % of control | [14] 87 % of control | [15] 96 % of control

COc1ccccc1/C=C1\SC(=S)NC1=O
inactive: dose: 50.0 mg/kg/injection, schedule: Q01DX001 (ip), vehicle: carboxymethylcellulose (CMC) 92 % of control | [10] 101 % of control | [11] 106 % of control | [12] 90 % of control

NC(=O)C(Cc1ccc(O)cc1)N(CCO)CCO (centres undefined)
inactive: [13] 101 % of control | [14] 101 % of control | [15] 104 % of control

CNc1ccccc1C=O
inactive: [13] 94 % of control | [14] 97 % of control | [15] 100 % of control

COC(=O)c1ccc([N+](=O)[O-])c(O)c1
inactive: [4] 96 % of control | [6] 96 % of control | [16] 98 % of control | [8] 100 % of control | [17] 88 % of control | [9] 102 % of control

CC1(C)N=C(N)N=C(N)N1c1cccc(CCCCC(=O)CCl)c1
inactive: [1] 109 % of control | [2] 102 % of control | [3] 110 % of control

O=[N+]([O-])c1cc(/C=N\Nc2ccccn2)ccc1Cl
inactive: [6] 112 % of control | [8] 101 % of control | [9] 101 % of control

Oc1ccccc1C1CC2CCC1C2 (centres undefined)
inactive: dose: 50.0 mg/kg/injection, schedule: Q04DX002 (ip), vehicle: saline with Tween-80 106 % of control | dose: 100.0 mg/kg/injection, schedule: Q01DX009 (ip), vehicle: saline with Tween-80 107 % of control | [5] 103 % of control | [7] 100 % of control

CC(=O)c1ccc(N=C=O)cc1
inactive: dose: 400.0 mg/kg/injection, schedule: Q01DX001 (ip), vehicle: saline with Tween-80 95 % of control

CCN(C(=O)Nc1cccc(C(F)(F)F)c1)c1ccccc1C(F)(F)F
inactive: [6] 98 % of control | [8] 91 % of control | [9] 93 % of control

O=C1Cc2ccccc2/C=C\c2ccccc21
inactive: dose: 100.0 mg/kg/injection, schedule: Q01DX001 (ip), vehicle: Klucel (hydroxypropylcellulose) (HPC) 97 % of control | [6] 102 % of control | dose: 200.0 mg/kg/injection, schedule: Q01DX001 (ip), vehicle: Klucel (hydroxypropylcellulose) (HPC) 100 % of control | [8] 96 % of control | dose: 400.0 mg/kg/injection, schedule: Q01DX001 (ip), vehicle: Klucel (hydroxypropylcellulose) (HPC) 106 % of control | [9] 102 % of control

Nc1cc(Cl)cc2c1-c1c(Cl)cc(Cl)cc1C2
inactive: [4] 102 % of control | [6] 96 % of control | [8] 104 % of control | [17] 102 % of control | [9] 104 % of control

CC(=O)c1cc(O)c2ccccc2c1O
inactive: dose: 100.0 mg/kg/injection, schedule: Q01DX001 (ip), vehicle: water 98 % of control | dose: 200.0 mg/kg/injection, schedule: Q01DX001 (ip), vehicle: water 89 % of control

CCn1cnc2c(SC)ncnc21
inactive: dose: 75.0 mg/kg/injection, schedule: Q01DX001 (ip), vehicle: acetone 101 % of control | dose: 150.0 mg/kg/injection, schedule: Q01DX001 (ip), vehicle: acetone 106 % of control | dose: 300.0 mg/kg/injection, schedule: Q01DX001 (ip), vehicle: acetone 108 % of control

CC(C)CC1(C(C)C)C(=O)NC(=O)NC1=O
inactive: dose: 75.0 mg/kg/injection, schedule: Q01DX001 (ip), vehicle: saline 89 % of control | dose: 150.0 mg/kg/injection, schedule: Q01DX001 (ip), vehicle: saline 98 % of control

O=c1cc(O)nc2ccccn12
inactive: [4] 99 % of control | [6] 95 % of control | [16] 97 % of control | [8] 96 % of control | [17] 92 % of control | [9] 91 % of control
